Data as given in patent US20170064953A1, “HERBICIDAL COMPOSITIONS CONTAINING 4-AMINO-3-CHLORO-6-(4-CHLORO-2-FLUORO-3-METHOXYPHENYL) PYRIDINE-2-CARBOXYLIC ACID OR A DERIVATIVE THEREOF, A TRIAZOLOPYRIMIDINE SULFONAMIDE HERBICIDE OR A DERIVATIVE THEREOF, AND GLYPHOSATE OR A DERIVATIVE THEREOF” (Dow AgroSciences LLC, priority 2015, published 2017).
“And” between values parts separate entries of the source, which are not always exact repeats. Identical values can stand only once. Counter-ions that a name gives are not always drawn.

Legend:
Assay in all cases: Field trial, postemergence herbicidal activity, foliar applied, visual rating
Assay type in all cases: in vivo
[1] = system: Euphorbia heterophylla (wild poinsettia, EPHHL); settings: 960 g ai/ha
Protocol: (§1) Treatments consisted of the methyl ester of 4-amino-3-chloro-6-(4-chloro-2-fluoro-3-methoxyphenyl)pyridine-2-carboxylic acid (Cmpd 1) and diclosulam in combination as GF-3220. […] Glyphosate dimethylammonium salt was applied as various commercial formulations containing 480 grams acid equivalent per liter (g ae/L).
(§2) Field trials were conducted under standard field conditions. Plot sizes varied from 3-4 meters (m) wide by 5-10 m long. Treatments were applied with small plot backpack sprayers, using pressurized carbon dioxide (CO2) as propellant. Pressure varied from 30-50 pounds per square inch (PSI), with spray tips typically of a Flat Fan type applying water diluent at 100-150 liters per hectare (L/ha). Boom sizes varied from 3-4 m in width. Weed sizes varied, but all treatments were applied as post-emergence treatments to weeds from 2 leaf to 2 tiller growth stages varying from 2-15 inches in height. No additional adjuvant was mixed with the treatments applied in the field.
(§3) The weed spectrum included, but was not limited to, Commelina benghalensis (hairy wandering Jew, COMBE), Echinochloa crus-galli (barnyardgrass, ECHCG), Euphorbia heterophylla (wild poinsettia, EPHHL), Conyza bonariensis (hairy fleabane, ERIBO), Conyza canadensis (horseweed, ERICA), Conyza sumatrensis (Guernsey fleabane, ERISU) and Ipomoea grandifolia (Corda-de-viola, IAQGR).
(§4) The values reported are percent (%) control visually rated. The predicted percent (%) weed control was determined using Colby's equation.

[2] = system: Echinochloa crus-galli (barnyardgrass, ECHCG); settings: 1200 g ai/ha
Protocol: as §1, §2, §3, §4

[3] = system: Ipomoea grandifolia (Corda-de-viola, IAQGR); settings: 960 g ai/ha
Protocol: as §1, §2, §3, §4

[4] = system: Conyza bonariensis (hairy fleabane, ERIBO); settings: 960 g ai/ha
Protocol: as §1, §2, §3, §4

[5] = system: Conyza canadensis (horseweed, ERICA); settings: 1200 g ai/ha
Protocol: as §1, §2, §3, §4

[6] = system: Conyza sumatrensis (Guernsey fleabane, ERISU); settings: 1200 g ai/ha
Protocol: as §1, §2, §3, §4

[7] = system: Commelina benghalensis (hairy wandering Jew, COMBE); settings: 35DAA, 960 g ai/ha
Protocol: as §1, §2, §3, §4

## O=C(O)CNCP(=O)(O)O [Glyphosate DMA salt, N-(phosphonomethyl)glycine]
[1]; 7DAA
  Mean % weed control: 38.8%
[1]; 14DAA
  Mean % weed control: 52.5%
[1]; 28DAA
  Mean % weed control: 18.8%
[1]; 35DAA
  Mean % weed control: 7.5%
[2]; 18DAA
  Mean % weed control: 16.7%
[2]; 38DAA
  Mean % weed control: 16.7%
[3]; 14DAA
  Mean % weed control: 40.0%
[3]; 19DAA
  Mean % weed control: 43.8%
[3]; 28DAA
  Mean % weed control: 45.0%
[3]; 35DAA
  Mean % weed control: 53.8%
[3]; 42DAA
  Mean % weed control: 48.8%
[4]; 9DAA
  Mean % weed control: 11.7% and 10.0%
[4]; 12DAA
  Mean % weed control: 43.3%
[4]; 14DAA
  Mean % weed control: 40.0% and 36.7% and 23.3%
[4]; 15DAA
  Mean % weed control: 48.3%
[4]; 23DAA
  Mean % weed control: 31.7%
[4]; 35DAA
  Mean % weed control: 25.0%
[4]; 40DAA
  Mean % weed control: 46.7%
[4]; 54DAA
  Mean % weed control: 23.3%
[4]; 67DAA
  Mean % weed control: 20.0%
[5]; 30DAA
  Mean % weed control: 28.8%
[5]; 32DAA
  Mean % weed control: 32.5%
[5]; 46DAA
  Mean % weed control: 25.0%
[5]; 47DAA
  Mean % weed control: 28.8%
[5]; 62DAA
  Mean % weed control: 20.0%
[6]; 19DAA
  Mean % weed control: 19.0%
[6]; 29DAA
  Mean % weed control: 17.0%
[6]; 46DAA
  Mean % weed control: 15.7%
[7]
  Mean % weed control: 62.0%
